In brackets after ≈: the same amount, converted by molar mass. Where two headings read alike, the source gives them in different places.
Tests used:
M. avium = assay: MIC against other mycobacteria: M. avium; format: cell-based; details: Table 3, M. avium
M. tuberculosis H37rv = assay: Antibiotic assay against M. tuberculosis (MIC / IC90); format: cell-based, Mycobacterium tuberculosis; details: for IC90: H37Rv
M. abscessus = assay: MIC against other mycobacteria: M. abscessus; format: cell-based; details: Table 3, M. abscessus
M. marinum = assay: MIC against other mycobacteria: M. marinum; format: cell-based; details: Table 3, M. marinum
M. smegmatis = assay: MIC against other mycobacteria: M. smegmatis; format: cell-based; details: Table 3, M. smegmatis
[1] = tested on: Gram-positive bacteria, including Staphylococcus aureus, Staphylococcus epidermidis, Listeria monocytogenes and M. tuberculosis; format: cell-based
[2] = Table 4, Formula III derivatives, M. tuberculosis H37rv

Compound	MIC (M. avium) [µg/mL]	MIC (M. tuberculosis H37rv) [µg/mL]	MIC (M. tuberculosis H37rv; Table 3, M. tuberculosis H37rv, Trial 2) [µg/mL]	MIC (M. tuberculosis H37rv; Table 3, M. tuberculosis H37rv, Trial 3) [µg/mL]	MIC (M. tuberculosis H37rv; Table 3, M. tuberculosis H37rv, Trial 4) [µg/mL]	MIC (M. tuberculosis H37rv; [2]) [µg/mL]	MIC (M. abscessus) [µg/mL]	MIC (M. marinum) [µg/mL]	MIC (M. smegmatis) [µg/mL]	activity as antibiotics against Gram-positive bacteria [1]	IC90 (M. tuberculosis H37rv) [nM]
CO[C@H]1/C=C/O[C@@]2(C)Oc3c(C)c(O)c4c(O)c(c(/C=N/N5CCN(C)CC5)c(O)c4c3C2=O)NC(=O)/C(C)=C\C=C\[C@H](C)[C@H](O)[C@@H](C)[C@@H](O)[C@@H](C)[C@H](OC(C)=O)[C@@H]1C [Rif, rifampicin]	< 0.195	0.05 (≈ 0.0608 µM)	0.31 (≈ 0.377 µM)	0.31 (≈ 0.377 µM)	0.31 (≈ 0.377 µM)	< 0.02	> 25	> 25	> 25		
CC(=O)OC1C(C)C(OC2CC3OCOC3C(C)O2)/C=C/OC2(C)CC(O)c3c(c(C)c(O)c4c3C(=O)C=C(NC(=O)/C(C)=C\C=C\C(C(C)OC(=O)C(C)(C)CC(=O)O)C(O)C(C)C(O)C1C)C4=O)O2 (centres unmarked) [kanglemycin V1]										active	3120
CC(=O)OC1C(C)C(OC2CC3OCOC3C(C)O2)/C=C/OC2(C)OC3=C(C)C(=O)c4c(O)c(cc5c4C3=C2OCO5)NC(=O)/C(C)=C\C=C\C(C(C)OC(=O)C(C)(C)CC(=O)O)C(O)C(C)C(O)C1C (centres unmarked) [kanglemycin V2]						0.08 (≈ 0.0803 µM)				active	1560
